These are literature values, as cited in patent publication US20110098303A1, “Method of promoting nail growth using thyromimetic compounds” (priority 2002, published 2011).

Series [1] has as its system nail growth. The conditions noted are these: in vivo.
Series [2] has as its system AGA mouse. The conditions noted are these: topical treatment.
In series [3] the test system is mice.

As to `N[C@@H](Cc1ccc(O)c(O)c1)C(=O)O` [I-dopa], the “rate of nail growth” value in series [1] was “accelerate the rate of nail growth”.

With `N[C@@H](Cc1cc(I)c(Oc2ccc(O)c(I)c2)c(I)c1)C(=O)O` [T3, 3,5,3′-triiodo-L-thyronine], the “effect on testosterone induced alopecia” value in series [2] was “inhibitory effect”. Moreover, the hair growth result in series [3] (administered locally, directly to the skin) is listed as “dramatic acceleration of hair growth”. Also, the growth of hair entry in series [3] (systemically administered) is given as “inhibits the growth of hair”.

Turning to `O=C(O)CCCC[C@@H]1SC[C@@H]2NC(=O)N[C@@H]21` [biotin], the “rate of nail growth” value in series [1] is reported as “accelerate the rate of nail growth”.

`N[C@@H](CSSC[C@H](N)C(=O)O)C(=O)O` [cystine]: in series [1], the “rate of nail growth” value is on record as “accelerate the rate of nail growth”.

Regarding `CSCC[C@H](N)C(=O)O` [methionine], the “rate of nail growth” value in series [1] is reported as “accelerate the rate of nail growth”.
